Measured values published in US7960383B2, “Pyridazin-3(2H)-one derivatives and their use as PDE4 inhibitors” (Laboratorios Almirall SA, priority 2004, dated 2011).

Target: PDE4 (Homo sapiens, UniProt Q07343)
Assay: PDE4 Assay Procedure ([3H]-cAMP SPA)
Format: biochemical
Settings: read-out: HPDE4B or IC50 PDE4
Description: Compounds to be tested were resuspended in DMSO at a stock concentration of 1 mM. The compounds were tested at different concentrations varying from 10 pM to 10 μM to calculate an IC50. These dilutions were done in 96-well plates. In some cases, plates containing diluted compounds were frozen before being assayed. In these cases, the plates were thawed at room temperature and stirred for 15 minutes.
Ten microliters of the diluted compounds were poured into a “low binding” assay plate. Eighty microliters of reaction mixture containing 50 mM Tris pH 7.5, 8.3 mM MgCl2, 1.7 mM EGTA, and 15 nM [3H]-cAMP were added to each well. The reaction was initiated by adding ten microliters of a solution containing PDE4. The plate was then incubated under stirring for 1 hour at room temperature. After incubation the reaction was stopped with 50 microlitres of SPA beads, and the reaction was allowed to incubate for another 20 minutes at room temperature before measuring radioactivity using standard instrumentation.
The reaction mixture was prepared by adding 90 ml of H2O to 10 ml of 10× assay buffer (500 mM Tris pH 7.5, 83 mM MgCl2, 17 mM EGTA), and 40 microlitres 1 μCi/μL [3H]-cAMP. SPA beads solution was prepared by adding 500 mg to […] H2O for a final concentration of 20 mg/ml beads and 18 mM zinc sulphate.

PDE4, sequence (Q07343 whole entry): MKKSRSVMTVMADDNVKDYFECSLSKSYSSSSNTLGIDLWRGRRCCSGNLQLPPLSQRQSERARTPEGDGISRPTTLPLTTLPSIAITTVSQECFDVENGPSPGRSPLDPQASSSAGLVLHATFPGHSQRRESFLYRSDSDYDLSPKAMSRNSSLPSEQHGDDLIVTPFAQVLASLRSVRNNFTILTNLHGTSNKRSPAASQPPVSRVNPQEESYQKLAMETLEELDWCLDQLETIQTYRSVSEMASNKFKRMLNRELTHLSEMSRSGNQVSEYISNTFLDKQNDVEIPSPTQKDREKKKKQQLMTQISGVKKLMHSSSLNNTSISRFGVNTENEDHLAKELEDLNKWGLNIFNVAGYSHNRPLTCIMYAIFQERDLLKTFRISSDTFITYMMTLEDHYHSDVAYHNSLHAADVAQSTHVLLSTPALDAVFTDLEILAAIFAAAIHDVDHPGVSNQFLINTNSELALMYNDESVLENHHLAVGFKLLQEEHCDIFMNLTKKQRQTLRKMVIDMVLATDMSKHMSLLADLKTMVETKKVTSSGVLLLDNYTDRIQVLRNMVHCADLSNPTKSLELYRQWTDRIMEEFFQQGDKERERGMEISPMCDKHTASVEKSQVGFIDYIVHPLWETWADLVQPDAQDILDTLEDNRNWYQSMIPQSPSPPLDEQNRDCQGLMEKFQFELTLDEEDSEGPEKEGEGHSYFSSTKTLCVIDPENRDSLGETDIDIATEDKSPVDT

SMILES | IC50 [nM]
CCn1nc(C(=O)OCCOc2ccccc2)cc(Nc2cncc3ccccc23)c1=O [Example 49, 2-Phenoxyethyl 1-ethyl-5-(isoquinolin-4-ylamino)-6-oxo-1,6-dihydropyridazine-3-carboxylate] | 0.73
CCn1nc(C(=O)OCc2cccc(Cl)c2)c(C(C)=O)c(Nc2cncc3ccccc23)c1=O [Example 69, 3-Chlorobenzyl 4-acetyl-1-ethyl-5-(isoquinolin-4-ylamino)-6-oxo-1,6-dihydropyridazine-3-carboxylate] | 0.49
CCn1nc(C(=O)OC(C)c2ccccc2)c(C(C)=O)c(Nc2cnccc2C)c1=O (stereo not drawn) [Example 41, 1-Phenylethyl 4-acetyl-1-ethyl-5-[(4-methylpyridin-3-yl)amino]-6-oxo-1,6-dihydropyridazine-3-carboxylate] | 69
CCn1nc(C(=O)OCc2cccc(OC)c2)cc(Nc2cncc3ccccc23)c1=O [Example 11, 3-Methoxybenzyl 1-ethyl-5-(isoquinolin-4-ylamino)-6-oxo-1,6-dihydropyridazine-3-carboxylate] | 1.6
CCn1nc(C(=O)OCc2cccc(Cl)c2)cc(Nc2cncc3ccccc23)c1=O [Example 13, 3-Chlorobenzyl 1-ethyl-5-(isoquinolin-4-ylamino)-6-oxo-1,6-dihydropyridazine-3-carboxylate] | 2.9
CCn1nc(C(=O)OCc2ccsc2)cc(Nc2cnccc2C)c1=O [Example 10, Thiophen-3-ylmethyl 1-ethyl-5-(4-methylpyridin-3-ylamino)-6-oxo-1,6-dihydropyridazine-3-carboxylate] | 19
CCn1nc(C(=O)OC2CCC2)c(C(C)=O)c(Nc2cncc3ccccc23)c1=O [Example 36, Cyclobutyl 4-acetyl-1-ethyl-5-(isoquinolin-4-ylamino)-6-oxo-1,6-dihydropyridazine-3-carboxylate] | 44
CCn1nc(C(=O)OCc2ccccc2)cc(Nc2cnccc2C)c1=O [Example 1, Benzyl 1-ethyl-5-(4-methylpyridin-3-ylamino)-6-oxo-1,6-dihydropyridazine-3-carboxylate] | 52
CCn1nc(C(=O)OCOC(=O)C(C)(C)CC)cc(Nc2cncc3ccccc23)c1=O [Example 66, 2,2-Dimethylbutyryloxymethyl 1-ethyl-5-(isoquinolin-4-ylamino)-6-oxo-1,6-dihydropyridazine-3-carboxylate] | 0.36
CCOC(=O)c1nn(CC)c(=O)c(Nc2cncc3ccccc23)c1C(C)=O [Example 23, Ethyl 4-acetyl-1-ethyl-5-(isoquinolin-4-ylamino)-6-oxo-1,6-dihydropyridazine-3-carboxylate] | 14
CCn1nc(C(=O)OC(C)c2ccccc2)c(C(C)=O)c(Nc2cncc3ccccc23)c1=O (stereo not drawn) [Example 39, 1-Phenylethyl 4-acetyl-1-ethyl-5-(isoquinolin-4-ylamino)-6-oxo-1,6-dihydropyridazine-3-carboxylate] | 1.5

Now from value to compound:

IC50 [nM] | SMILES
2.4 | CCn1nc(C(=O)OC(C)c2ccccc2)cc(Nc2cncc3ccccc23)c1=O (stereo not drawn) [Example 14, 1-Phenylethyl 1-ethyl-5-(isoquinolin-4-ylamino)-6-oxo-1,6-dihydropyridazine-3-carboxylate]
1.9 | CCn1nc(C(=O)OCc2ccccc2)c(C(C)=O)c(Nc2cncc3ccccc23)c1=O [Example 33, Benzyl 4-acetyl-1-ethyl-5-(isoquinolin-4-ylamino)-6-oxo-1,6-dihydropyridazine-3-carboxylate]
16 | CCn1nc(C(=O)OC(C)C)c(C(C)=O)c(Nc2cncc3ccccc23)c1=O [Example 27, Isopropyl 4-acetyl-1-ethyl-5-(isoquinolin-4-ylamino)-6-oxo-1,6-dihydropyridazine-3-carboxylate]
0.48 | CCn1nc(C(=O)OCc2ccc(Br)cc2)cc(Nc2cncc3ccccc23)c1=O [Example 51, 4-Bromobenzyl 1-ethyl-5-(isoquinolin-4-ylamino)-6-oxo-1,6-dihydropyridazine-3-carboxylate]
5.1 | CCn1nc(C(=O)OCc2ccccc2)c(C(C)=O)c(Nc2cccnc2)c1=O [Example 26, Benzyl 4-acetyl-1-ethyl-6-oxo-5-(pyridin-3-ylamino)-1,6-dihydropyridazine-3-carboxylate]
13 | CCn1nc(C(=O)OC(C)Cc2ccccc2)c(C(C)=O)c(Nc2cncc3ccccc23)c1=O (stereo not drawn) [Example 38, 1-Methyl-2-phenylethyl 4-acetyl-1-ethyl-5-(isoquinolin-4-ylamino)-6-oxo-1,6-dihydropyridazine-3-carboxylate]
5 | CCCCCCCCOC(=O)c1nn(CC)c(=O)c(Nc2cncc3ccccc23)c1C(C)=O [Example 71, Octyl 4-acetyl-1-ethyl-5-(isoquinolin-4-ylamino)-6-oxo-1,6-dihydropyridazine-3-carboxylate]
